Reference: patent publication US10111874B2, “Combination therapies for treatment of cancer” (Araxes Pharma LLC, priority 2014, dated 2018)

Key:
SW1573 cells = test: Western blots of KRAS signaling nodes and cleaved PARP in SW1573 cells; type: cell-based
Description: (§1) Western blots were used to analyze downstream KRAS signaling nodes (AKT, ERK, RSK, S6) and a marker of apoptosis (cleaved PARP). […] Taxol (paclitaxel) was used as a positive control.

[1] = system: mutant cell lines (H358, NCI-H23, SW1463, H1792, Calu-1, SW1573); test: Western blots, KRAS G12C inhibitor with SRC inhibitors in multiple cell lines; type: cell-based; conditions: I-272 1 μM
Description: (§2) Western blots were used to analyze downstream KRAS signaling nodes (AKT, ERK, RSK, S6) and a marker of apoptosis (cleaved PARP).
As a control, a non-G12C cell line (A549) was subjected to the same single agent and combination treatments. The KRAS G12C inhibitors show no single agent or additive/synergistic effects in this line.

[2] = system: mutant cell lines (H358, H1792, MiaPaca2); test: Western blots, KRAS G12C inhibitor with JAK inhibitor momelotinib in multiple cell lines; type: cell-based
Experimental: Western blots were used to analyze downstream KRAS signaling nodes (AKT, ERK, S6), a transcription factor (STAT3), and a marker of apoptosis (cleaved PARP). Treatment of mutant cell lines (H358, H1792, MiaPaca2) or a control cell line (A549) was tested with an exemplary KRAS G12C inhibitor (compound I-272, 0.3 and 1 μM) alone or in combination with momelotinib (JAK inhibitor, 5 μM). […] Specifically, when compound I-272 is used in combination with momelotinib (JAK inhibitor) PARP is detected in H358, H1792, and MiaPaca2.

[3] = system: mutant cells (H358, Calu-1, MiaPaca2, NCI-H23, SW1463, H1792); test: Western blots / dot blot arrays of signaling pathways maintained or hyper-activated following KRAS G12C inhibition; type: cell-based; conditions: 48 hours, versus untreated cell lines
Description: FIG. 1 provides western blots for identifying synergistic pathways for targeting in combination with KRAS G12C inhibition. Shown are dot blot arrays for detection of phosphorylated receptor tyrosine kinases (p-RTK) and phosphorylated signaling kinases (ie. p-ERK, or p-AKT) for indicated cell lines treated with indicated K-Ras G12C inhibitor. Notable signaling targets and their respective pathways that are induced or maintained following treatment are summarized for various cell lines.
Western blots were used to analyze downstream KRAS signaling nodes (AKT, ERK, S6, EGFR/HER2, SRC, MET) and a transcription factor (STAT3). […] Sustained or induced pathways were assessed by comparing untreated cell lines with those treated by compound I-272.

[4] = molecular target: T1, KRAS G12C 1-169, his-tagged protein, GDP-loaded (Homo sapiens, UniProt P01116, G12C); test: Biochemical assay: covalent binding to KRAS G12C analyzed by mass spectrometry; conditions: compounds 247-342, measured at 30 min; listed as 272
T1 construct: KRAS G12C 1-169, his-tagged protein, GDP-loaded

[5] = system: mutant cell lines (NCI-H23, SW1573); test: Western blots, KRAS G12C inhibitor with ruxolitinib or momelotinib; type: cell-based; conditions: I-272 1 μM
Experimental: Western blots were used to analyze downstream KRAS signaling nodes (AKT, ERK, S6), transcription factors (STAT3, IκBα), protein marker (TBK1) and a marker of apoptosis (cleaved PARP). Treatment of mutant cell lines (NCI-H23, SW1573) were tested with an exemplary KRAS G12C inhibitor (compound I-272, 1 μM) alone or in combination with one of ruxolitinib (JAK 1/2 inhibitor, 1 and 5 μM) or momelotinib (JAK1/2, TBK1, IKKe inhibitor, 1 and 5 μM). […] Further, there is synergistic p-S6 inhibition in each of the combinations. Synergistic apoptosis strongly occurred when TBK1 and non-canonical NFκB signaling is inhibited.

Calu-1 cells = test: Western blots of KRAS signaling nodes and cleaved PARP in Calu-1 cells; type: cell-based; conditions: I-272 30, 100, 300, and 1000 nM, Dasatinib 150 nM
Description: as §2

H358 cells (KRAS G12C) = test: Western blots of downstream KRAS signaling nodes and apoptosis markers in H358 cells; type: cell-based; conditions: for G1 arrest and induction of apoptosis: H358 cells (FIG. 9, left panel); for apoptosis based on c-caspase 3 levels: H358 cells (FIG. 11); for apoptosis based on cleaved PARP levels: H358 cells, erlotinib 5 μM
Experimental: FIG. 2 depicts western blot analysis of downstream targets of K-Ras signaling. […] Paclitaxel was used as a positive control. The western blots were probed with antibodies for p-AKT, p-ERK, total ERK, p-RSK, p-S6 and cleaved PARP. Cleaved PARP is indicative of apoptosis. B) A549 cells that express the G12S isoform of K-Ras were used a control for K-Ras G12C inhibitor specificity. A549 cells were treated as in A).
as §2, §1
Western blots were used to analyze downstream KRAS signaling nodes (AKT, ERK, RSK, S6) and a marker of apoptosis (cleaved PARP). […] Caspase activity was measured using a standard caspase activity luminescence assay (Capase-Glo, Promega).

H358 cells = test: Flow cytometry, cell cycle progression and apoptosis (sub-diploid cells); type: cell-based; conditions: single agents
Experimental: B) The average apoptosis response of NCI-H358, NCI-H1792, NCI-H2122, and SW1573 cell lines generated by flow cytometry as described in A).
(§3) Apoptosis was measured via flow cytometry. Gated populations=% of subdiploid apoptotic cells.
as §3
FIG. 7 depicts apoptosis in NCI-H358 cells treated with II-64 (10 μM), SN38 (5 nM), or a combination treatment (II-64+SN38). […] Apoptosis was measured via flow cytometry. Gated populations=% of subdiploid apoptotic cells.
Flow cytometry was used to evaluate KRAS G12C inhibitor combination treatments.
Next, flow cytometry was used to evaluate a KRAS G12C inhibitor in combination with the chemotherapeutic agents paclitaxel or docetaxel.

[6] = system: KRAS G12C mutant cells lines (H358, H2122, H2030, H1792, Calu-1, MiaPaca2, and NCI-H23); test: Caspase activity luminescence assay (Capase-Glo) with compound II-64 alone or in combination; type: cell-based; conditions: alone
Experimental: Caspase activity was measured using a standard caspase activity luminescence assay (Capase-Glo, Promega). Taxol (paclitaxel) was used as a positive control.

[7] = I-272 0.3 and 1 μM, alone, 24 hours

T1 sequence (P01116 1-169 isoform P01116-2 G12C): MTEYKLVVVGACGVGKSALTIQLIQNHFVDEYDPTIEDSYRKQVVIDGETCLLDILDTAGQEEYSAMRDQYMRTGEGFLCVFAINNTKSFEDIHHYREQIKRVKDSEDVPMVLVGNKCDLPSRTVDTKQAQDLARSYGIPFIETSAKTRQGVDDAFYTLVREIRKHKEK

## Cc1nc(NC(=O)N2CCC[C@H]2C(N)=O)sc1-c1ccnc(C(C)(C)C(F)(F)F)c1 [BYL719, Alpelisib]
SW1573 cells
  apoptosis based on cleaved PARP levels: does not induce robust apoptosis

## C=CC(=O)N1CCN(c2ncnc3c(F)c(-c4cc(O)cc5ccccc45)c(Cl)cc23)CC1 [Compound I-272, 1-(4-(6-chloro-8-fluoro-7-(3-hydroxynaphthalen-1-yl)quinazolin-4-yl)piperazin-1-yl)prop-2-en-1-one]
[1]; alone, 24 hours
  inhibition of p-ERK: clear and, in some cases (H358, SW1463, Calu-1), nearly complete inhibition of p-ERK
[1]; dasatinib 100 nM, 24 hours
  inhibition of p-S6: inhibition of p-S6 in H358, SW1463, H1792, and Calu-1 cell lines
[1]; dasatinib 100 nM, Saracatinib 2 μM
  apoptosis based on cleaved PARP levels: minimal cleaved PARP
[2]; [7]
  inhibition of S6: some to nearly complete inhibition of S6 (in H358)
  inhibition of p-ANK: some inhibition of p-ANK (in H358)
  inhibition of p-ERK: some and nearly complete inhibition of p-ERK (in H1792 and H358 respectfully)
[2]; I-272 0.3 and 1 μM, momelotinib 5 μM
  induction of apoptosis (cleaved PARP): some induction of apoptosis as observed by the presence of cleaved PARP (in H358 and MiaPaca2)
[2]; I-272 alone, also control cell line A549
  induction of STAT3: induces STAT3 in certain cell lines (slight in H358 and H1792, strong in MiaPaca2 and A549)
[3]
  sustained or induced pathways following KRAS G12C inhibition: sustained or induced pathways suggesting targeting with RTK, PI3K, mTOR, SRC, and JAK/STAT inhibitors
[4]
  Binding %: ++++ (++++indicates binding activity greater than 75%)
[5]; alone, 24 hours
  inhibition of p-ERK: clear and nearly complete inhibition of p-ERK
  inhibition of p-S6 and p-AKT: inhibition of p-S6 and p-AKT in NCI-H23
[5]; ruxolitinib or momelotinib 1 and 5 μM
  apoptosis based on cleaved PARP levels: minimal cleaved PARP
Calu-1 cells; 24 hours
  inhibition of downstream KRAS signaling nodes (Western blot): clear and, at higher concentrations, nearly complete inhibition of p-ERK and p-RSK
Calu-1 cells
  apoptosis based on cleaved PARP levels: minimal cleaved PARP

## CS(=O)(=O)N1CCN(Cc2cc3nc(-c4cccc5[nH]ncc45)nc(N4CCOCC4)c3s2)CC1 [GDC0941, 2-(1H-indazol-4-yl)-6-(4-methanesulfonyl-piperazin-1-ylmethyl)-4-morpholin-4-yl-thieno[3,2-d]pyrimidine, reference compound]
H358 cells (KRAS G12C)
  G1 arrest and induction of apoptosis: G1 arrest with low to modest induction of apoptosis
  apoptosis based on c-caspase 3 levels: does not induce robust apoptosis
H358 cells
  cell cycle arrest and induction of apoptosis (flow cytometry): G1 arrest with low to modest induction of apoptosis

## C#Cc1cccc(Nc2ncnc3cc(OCCOC)c(OCCOC)cc23)c1 [erlotinib, reference compound]
H358 cells (KRAS G12C)
  G1 arrest and induction of apoptosis: G1 arrest with low to modest induction of apoptosis
  apoptosis based on c-caspase 3 levels: does not induce robust apoptosis
H358 cells (KRAS G12C); 24 hours, G12C inhibitors 10 μM, GDC0941 2 μM (FIG. 2)
  apoptosis based on cleaved PARP levels: does not induce robust apoptosis
H358 cells (KRAS G12C); I-74 15 μM, PD0325901 100 nM, GDC0941 1 μM
  apoptosis based on cleaved PARP levels: does not induce robust apoptosis
H358 cells
  cell cycle arrest and induction of apoptosis (flow cytometry): G1 arrest with low to modest induction of apoptosis
[6]
  caspase activity: did not induce significant caspase activity
